# Measured values from patent US9056844B2, “4-substituted-3-benzyloxy-bicyclo[3.1.0]hexane compounds as mGluR 2/3 antagonists” (Eli Lilly and Company, priority 2010, dated 2015).
# Experiments:
# human mGlu2 receptors = target: T1, human mGlu2 receptors (Homo sapiens, UniProt Q14416); experiment: mGlu2 receptor cAMP antagonist assay; type: cell-based; details: reversal of DCG IV (EC90) inhibition of forskolin-stimulated cAMP; AV12 cells
# T1 construct: expressed in transfected cells; host or cells: AV12 cells, co-expressing rat EAAT1
# T1 sequence (Q14416 19-872): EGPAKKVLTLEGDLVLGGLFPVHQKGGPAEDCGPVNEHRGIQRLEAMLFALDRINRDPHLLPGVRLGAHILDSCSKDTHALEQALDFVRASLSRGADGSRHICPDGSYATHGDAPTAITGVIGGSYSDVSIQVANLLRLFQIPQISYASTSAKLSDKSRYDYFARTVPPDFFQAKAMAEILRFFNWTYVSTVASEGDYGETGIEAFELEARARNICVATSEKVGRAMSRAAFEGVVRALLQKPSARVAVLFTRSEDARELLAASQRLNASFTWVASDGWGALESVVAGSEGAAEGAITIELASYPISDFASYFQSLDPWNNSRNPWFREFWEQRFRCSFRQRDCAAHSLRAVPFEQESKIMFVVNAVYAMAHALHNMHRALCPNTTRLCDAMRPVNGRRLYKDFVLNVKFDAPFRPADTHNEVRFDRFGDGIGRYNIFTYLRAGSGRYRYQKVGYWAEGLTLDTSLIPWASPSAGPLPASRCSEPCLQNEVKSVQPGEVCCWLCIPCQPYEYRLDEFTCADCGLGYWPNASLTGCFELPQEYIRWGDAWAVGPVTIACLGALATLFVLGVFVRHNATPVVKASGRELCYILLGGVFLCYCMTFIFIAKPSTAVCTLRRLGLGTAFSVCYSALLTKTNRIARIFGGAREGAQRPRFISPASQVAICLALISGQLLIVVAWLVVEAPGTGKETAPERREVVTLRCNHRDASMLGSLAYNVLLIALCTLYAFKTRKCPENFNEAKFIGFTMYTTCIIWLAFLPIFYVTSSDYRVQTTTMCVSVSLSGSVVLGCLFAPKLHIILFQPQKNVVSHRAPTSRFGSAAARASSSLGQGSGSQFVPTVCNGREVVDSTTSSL
# Procedure: mGlu2 and mGlu3 Receptor cAMP Antagonist Assays
# Antagonist activity is assayed in recombinant AV12 cells stably expressing human mGlu2 or mGlu3 receptors and the rat glutamate transporter EAAT1 (Excitatory Amino Acid Transporter 1). The cell lines are maintained by culturing in DMEM with high glucose and pyridoxine hydrochloride supplemented with 5% dialyzed fetal bovine serum (FBS), 1 mM sodium pyruvate, 1 mM HEPES and 1 mM L-glutamine; geneticin and hygromycin B are used as selection antibiotics.
# Reversal of the inhibition of forskolin-stimulated cAMP production by test compounds is measured using homogeneous time resolved fluorescence technology (HTRF; Cisbio cat #62AM4PEB). The medium is removed and the cells are incubated with 100 μl cAMP stimulation buffer (STIM) for 30 minutes at 37° C. […] Cells are incubated at 37° C. for 20 minutes. To measure the cAMP levels, cAMP-d2 conjugate and anti cAMP-cryptate conjugate in lysis buffer are incubated with the treated cells at room temperature for 1 hour (mGlu2) or 1.5 hour (mGlu3). […] The raw data are converted to cAMP amount (pmole/well) using a cAMP standard curve generated for each experiment. Relative IC50 values are calculated from the top-bottom range of the concentration response curve using a four-parameter logistic curve fitting program (ActivityBase v5.3.1.22).
# human mGlu4 receptor = target: T2, human mGlu4 receptor (Homo sapiens, UniProt Q14833); experiment: FLIPR calcium assay for mGlu receptor selectivity, mGlu4 antagonist mode; type: cell-based; details: inhibition of EC90 glutamate response, read-out: mGlu4 % inhib. @12.5 μM
# T2 construct: expressed in transfected cells; host or cells: AV12 cells, co-expressing rat EAAT1 and Galpha15
# T2 sequence (Q14833 33-912): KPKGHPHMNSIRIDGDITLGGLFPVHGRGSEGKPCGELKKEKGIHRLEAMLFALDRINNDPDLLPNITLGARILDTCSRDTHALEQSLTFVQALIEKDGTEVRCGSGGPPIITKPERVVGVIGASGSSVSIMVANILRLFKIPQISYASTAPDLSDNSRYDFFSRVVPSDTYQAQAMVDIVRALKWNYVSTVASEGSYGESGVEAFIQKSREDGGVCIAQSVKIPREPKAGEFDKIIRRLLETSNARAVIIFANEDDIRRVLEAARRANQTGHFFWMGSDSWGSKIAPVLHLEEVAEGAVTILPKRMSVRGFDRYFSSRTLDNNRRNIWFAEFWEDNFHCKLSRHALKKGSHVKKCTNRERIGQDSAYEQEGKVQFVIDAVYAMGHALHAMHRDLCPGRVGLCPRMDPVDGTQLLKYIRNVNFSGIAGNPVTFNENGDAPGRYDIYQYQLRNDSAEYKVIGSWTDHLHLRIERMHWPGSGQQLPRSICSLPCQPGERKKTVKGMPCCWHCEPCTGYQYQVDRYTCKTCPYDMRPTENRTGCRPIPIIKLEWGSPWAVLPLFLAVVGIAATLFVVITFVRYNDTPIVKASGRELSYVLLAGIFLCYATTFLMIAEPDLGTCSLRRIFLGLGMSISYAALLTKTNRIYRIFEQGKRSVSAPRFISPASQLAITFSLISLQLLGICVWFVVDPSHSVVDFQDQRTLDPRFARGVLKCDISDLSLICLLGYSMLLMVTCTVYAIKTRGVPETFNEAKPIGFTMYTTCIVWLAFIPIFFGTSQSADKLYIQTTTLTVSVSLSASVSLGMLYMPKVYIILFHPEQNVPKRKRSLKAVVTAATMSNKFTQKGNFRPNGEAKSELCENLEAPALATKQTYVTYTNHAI
# Description: FLIPR and cAMP Assays for mGlu Receptor Selectivity
# The relative antagonist potencies of the compounds of the invention for the other human mGlu receptors can be assessed with either a cAMP assay or fluorometric calcium response assay (see for example Fell et al., JPET (in press)). Briefly, individual AV12 cell lines containing the rat EAAT1 glutamate transporter and stably expressing the human mGlu1, 2, 3, 4, 5, 6, & 8 receptors are used for these studies. The mGlu1 and 5 receptors are […], so they naturally signal through phospholipase C, producing a calcium flux response which can be used to measure receptor activation using a Fluorometric Imaging Plate Reader (FLIPR, Molecular Devices). The cell lines expressing the mGlu2, 3, 4, and 8 receptor are designed to express the Gα15 subunit so that these Gi-coupled receptors will generate a calcium flux response similar to the mGlu1 and 5 receptor expressing cell lines. The mGlu6 receptor is tested in a cAMP format using methods analogous to those developed for mGlu2 and mGlu3 above. These cell lines are maintained as previously described except that amounts of L-glutamine and selection agents (geneticin, hygromycin B, zeocin, and blasticidin) may vary depending on the cell line. Confluent cultures are passaged biweekly.
# Intracellular calcium levels are monitored using FLIPR before and after the addition of test compounds and Fluo-3 AM (Invitrogen) or Calcium 4 (Molecular Devices) dye, depending on the cell line. Cells are plated 24 hours prior to assay in a variable concentration of glutamine and a variable density of cells per well, depending on the cell line. The medium is removed and the cells are incubated with 8 μM of dye (50 μl per well) for 90 or 120 minutes (depending on cell line) at 25° C. A single-addition FLIPR assay generating an 11-point concentration response curve for the agonist glutamate is conducted prior to each experiment to confirm the appropriate sensitivity of the cells. The results are analyzed using GraphPad Prism v4.03 to calculate the concentrations of glutamate needed to induce the EC90 (antagonist assay) and EC10 (potentiator assay) responses.
# Compounds are tested at each mGlu receptor in a two-addition FLIPR assay using a 10-point concentration response profile starting at a final concentration of 25 μM for the agonist assay and 12.5 μM for the potentiator and antagonist assays. The first addition detects any agonist activity, and the second addition consists of 100 μl of select concentrations (depending on cell line) of glutamate in assay buffer generating an EC10 or EC90 glutamate response. Agonist effects are quantified as percent stimulation induced by compound alone relative to the maximal glutamate response. Antagonist effects are quantified by calculating the percent inhibition of the EC90 glutamate response caused by the compound. Potentiation effects are quantified as percent increase in the presence of an EC10 response in glutamate relative to the ECmax response. All data are calculated as relative IC50 or EC50 values using a four-parameter logistic curve fitting program (ActivityBase v5.3.1.22).
# hERG channel = hERG channel (Homo sapiens, UniProt Q12809); experiment: Off-target activity, known assay methods: hERG
# Sequence of hERG channel (Q12809 whole entry): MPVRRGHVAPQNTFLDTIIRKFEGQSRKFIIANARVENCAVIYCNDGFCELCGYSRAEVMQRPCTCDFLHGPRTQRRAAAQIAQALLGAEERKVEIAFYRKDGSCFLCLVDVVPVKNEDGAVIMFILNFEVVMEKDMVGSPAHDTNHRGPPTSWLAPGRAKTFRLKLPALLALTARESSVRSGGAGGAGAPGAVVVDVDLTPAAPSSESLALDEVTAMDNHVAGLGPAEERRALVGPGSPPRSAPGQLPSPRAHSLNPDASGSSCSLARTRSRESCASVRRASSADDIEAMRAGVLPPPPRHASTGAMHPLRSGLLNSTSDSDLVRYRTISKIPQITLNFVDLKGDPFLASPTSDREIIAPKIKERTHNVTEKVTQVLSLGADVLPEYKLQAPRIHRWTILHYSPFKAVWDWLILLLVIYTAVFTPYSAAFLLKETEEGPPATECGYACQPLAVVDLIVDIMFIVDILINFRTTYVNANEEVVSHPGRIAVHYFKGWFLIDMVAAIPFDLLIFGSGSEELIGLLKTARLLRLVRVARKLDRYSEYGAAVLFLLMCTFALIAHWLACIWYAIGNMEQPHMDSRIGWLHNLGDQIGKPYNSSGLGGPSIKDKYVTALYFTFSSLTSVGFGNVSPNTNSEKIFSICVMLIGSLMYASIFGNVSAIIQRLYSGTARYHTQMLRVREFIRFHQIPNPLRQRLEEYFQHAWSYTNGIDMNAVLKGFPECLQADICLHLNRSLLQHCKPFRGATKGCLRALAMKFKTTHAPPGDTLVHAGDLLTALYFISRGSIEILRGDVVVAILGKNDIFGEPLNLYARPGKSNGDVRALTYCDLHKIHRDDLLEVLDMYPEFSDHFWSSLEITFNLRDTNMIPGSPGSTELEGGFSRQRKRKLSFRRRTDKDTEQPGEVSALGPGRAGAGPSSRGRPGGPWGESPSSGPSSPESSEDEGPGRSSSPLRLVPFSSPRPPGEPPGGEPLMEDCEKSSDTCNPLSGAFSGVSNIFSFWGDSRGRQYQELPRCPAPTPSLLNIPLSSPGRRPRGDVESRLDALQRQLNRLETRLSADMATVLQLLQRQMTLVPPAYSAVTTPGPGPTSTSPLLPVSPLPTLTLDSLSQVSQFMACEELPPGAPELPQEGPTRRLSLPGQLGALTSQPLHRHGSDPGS
# Description: (§1) Further, certain compounds of the present invention show a lack of significant activity at other physiologically important receptors such as, but not limited to, the hERG channel, serotonin receptors (specifically 5-HT2A and 5-HT2B), muscarinic receptors (specifically M2), and iGluR receptors (specifically iGluR5).
# [1] = target: serotonin receptor 5-HT2B (Homo sapiens, UniProt P41595); experiment: Off-target activity, known assay methods: 5-HT2B
# Sequence of serotonin receptor 5-HT2B (P41595 whole entry): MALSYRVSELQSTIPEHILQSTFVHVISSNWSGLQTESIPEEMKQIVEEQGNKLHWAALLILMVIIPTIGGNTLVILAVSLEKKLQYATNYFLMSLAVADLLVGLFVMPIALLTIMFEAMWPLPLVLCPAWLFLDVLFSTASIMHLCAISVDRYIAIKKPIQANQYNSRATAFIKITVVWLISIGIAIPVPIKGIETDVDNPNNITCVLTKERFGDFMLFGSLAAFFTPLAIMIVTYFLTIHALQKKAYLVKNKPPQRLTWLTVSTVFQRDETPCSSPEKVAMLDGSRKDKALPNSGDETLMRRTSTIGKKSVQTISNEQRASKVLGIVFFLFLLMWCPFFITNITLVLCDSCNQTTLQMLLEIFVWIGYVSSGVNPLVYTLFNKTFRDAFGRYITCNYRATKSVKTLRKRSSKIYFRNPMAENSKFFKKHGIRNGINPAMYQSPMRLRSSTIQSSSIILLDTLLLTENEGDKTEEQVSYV
# Description: as §1
# [2] = target: serotonin receptor 5-HT2A (Homo sapiens, UniProt P28223); experiment: Off-target activity, known assay methods: 5-HT2A
# Sequence of serotonin receptor 5-HT2A (P28223 whole entry): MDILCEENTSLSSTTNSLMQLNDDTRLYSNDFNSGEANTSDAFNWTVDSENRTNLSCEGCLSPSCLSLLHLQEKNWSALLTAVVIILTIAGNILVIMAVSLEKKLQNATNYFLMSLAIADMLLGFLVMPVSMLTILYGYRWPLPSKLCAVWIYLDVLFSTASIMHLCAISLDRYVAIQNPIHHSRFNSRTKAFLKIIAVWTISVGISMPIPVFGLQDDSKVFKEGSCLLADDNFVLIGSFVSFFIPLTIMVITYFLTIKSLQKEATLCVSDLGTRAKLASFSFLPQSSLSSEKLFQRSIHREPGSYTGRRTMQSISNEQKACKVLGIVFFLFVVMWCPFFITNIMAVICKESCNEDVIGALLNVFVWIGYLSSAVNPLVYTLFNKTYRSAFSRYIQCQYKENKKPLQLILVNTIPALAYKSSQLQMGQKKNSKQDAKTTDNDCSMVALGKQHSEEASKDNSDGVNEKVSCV
# Description: as §1
# mGlu2+/+ mice = experiment: mFST in mGlu2+/+ littermate mice; type: in vivo, mouse; details: 10 mg/kg, i.p., 30 min prior
# iGluR5 = iGluR5 (Homo sapiens, UniProt P39086); experiment: Off-target activity, known assay methods: iGluR5
# Sequence of iGluR5 (P39086 31-918): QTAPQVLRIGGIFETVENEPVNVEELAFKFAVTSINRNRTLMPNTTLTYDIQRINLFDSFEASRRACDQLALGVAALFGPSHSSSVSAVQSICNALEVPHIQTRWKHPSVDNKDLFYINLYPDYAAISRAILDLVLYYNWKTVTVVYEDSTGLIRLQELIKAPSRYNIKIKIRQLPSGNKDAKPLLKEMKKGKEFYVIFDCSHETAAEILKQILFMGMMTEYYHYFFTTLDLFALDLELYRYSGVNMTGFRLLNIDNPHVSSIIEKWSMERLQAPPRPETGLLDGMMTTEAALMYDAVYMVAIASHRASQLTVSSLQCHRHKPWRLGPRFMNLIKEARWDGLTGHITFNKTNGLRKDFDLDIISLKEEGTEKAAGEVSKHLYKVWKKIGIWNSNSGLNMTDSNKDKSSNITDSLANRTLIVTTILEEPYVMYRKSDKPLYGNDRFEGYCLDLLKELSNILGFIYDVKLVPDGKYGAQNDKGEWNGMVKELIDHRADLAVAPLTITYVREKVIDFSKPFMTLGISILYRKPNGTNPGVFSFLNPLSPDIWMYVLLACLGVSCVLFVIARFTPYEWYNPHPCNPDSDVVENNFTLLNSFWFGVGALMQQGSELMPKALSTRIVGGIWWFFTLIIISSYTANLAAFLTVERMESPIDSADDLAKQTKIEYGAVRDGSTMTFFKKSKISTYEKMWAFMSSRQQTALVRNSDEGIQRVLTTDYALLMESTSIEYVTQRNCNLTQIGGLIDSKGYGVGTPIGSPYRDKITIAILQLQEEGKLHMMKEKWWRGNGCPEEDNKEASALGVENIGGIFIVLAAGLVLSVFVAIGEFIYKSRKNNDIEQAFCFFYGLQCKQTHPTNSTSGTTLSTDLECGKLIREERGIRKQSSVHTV
# Description: as §1
# muscarinic receptor M2 = target: T3, muscarinic receptor M2 (Homo sapiens, UniProt P08172); experiment: Off-target activity, known assay methods: M2
# T3 sequence (P08172 1-466): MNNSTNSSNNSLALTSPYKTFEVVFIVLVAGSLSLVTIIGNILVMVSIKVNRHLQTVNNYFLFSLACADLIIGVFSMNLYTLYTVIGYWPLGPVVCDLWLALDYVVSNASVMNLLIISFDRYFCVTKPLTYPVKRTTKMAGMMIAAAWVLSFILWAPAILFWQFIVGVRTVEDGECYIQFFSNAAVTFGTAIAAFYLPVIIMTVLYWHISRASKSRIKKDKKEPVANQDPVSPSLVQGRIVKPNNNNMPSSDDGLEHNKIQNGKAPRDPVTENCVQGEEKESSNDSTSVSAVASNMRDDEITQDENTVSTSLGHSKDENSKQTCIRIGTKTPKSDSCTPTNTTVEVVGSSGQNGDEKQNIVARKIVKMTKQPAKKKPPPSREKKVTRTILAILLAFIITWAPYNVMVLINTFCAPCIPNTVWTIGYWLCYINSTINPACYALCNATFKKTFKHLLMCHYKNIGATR
# Description: as §1
SMILES,IC50 (human mGlu2 receptors),inhibition at 12.5 µM (human mGlu4 receptor),activity at the hERG channel (hERG channel),activity at 5-HT2B [1],activity at 5-HT2A [2],immobility time (mGlu2+/+ mice),activity at iGluR5 (iGluR5),activity at M2 (muscarinic receptor M2)
"Cl.N[C@]1(C(=O)O)[C@@H]2[C@@H](C(=O)O)[C@@H]2[C@H](NC(=O)CO)[C@H]1OCc1ccc(Cl)c(Cl)c1 [Example 9, (1S,2R,3R,4S,5R,6S)-2-Amino-3-[(3,4-dichlorobenzyl)oxy]-4-[(hydroxyacetyl)amino]bicyclo[3.1.0]hexane-2,6-dicarboxylic acid hydrochloride]",22 ± 3 nM,46.9%,,,,,,
"N[C@]1(C(=O)O)[C@@H]2[C@@H](C(=O)O)[C@@H]2[C@H](Sc2nc[nH]n2)[C@H]1OCc1ccc(Cl)c(Cl)c1 [Example 2, (1R,2R,3S,4S,5R,6R)-2-Amino-3-[(3,4-dichlorobenzyl)oxy]-4-(1H-1,2,4-triazol-3-ylsulfanyl)bicyclo[3.1.0]hexane-2,6-dicarboxylic acid]",13.1 ± 1.9 nM,69%,,,,,,
"Cl.Cn1cnc(S[C@H]2[C@H]3[C@H](C(=O)O)[C@H]3[C@](N)(C(=O)O)[C@@H]2OCc2ccc(Cl)c(Cl)c2)n1 [Example 7, (1R,2R,3S,4S,5R,6R)-2-Amino-3-[(3,4-dichlorophenyl)methoxy]-4-[(1-methyl-1,2,4-triazol-3-yl)sulfanyl]bicyclo[3.1.0]hexane-2,6-dicarboxylic acid hydrochloride.]",52 ± 17.9 nM,32.2%,,,,,,
"N[C@]1(C(=O)O)[C@@H]2[C@@H](C(=O)O)[C@@H]2[C@H](O)[C@H]1OCc1ccc(Cl)c(Cl)c1 [Example 1, (1S,2R,3S,4S,5R,6R)-2-Amino-3-[(3,4-dichlorobenzyl)oxy]-4-hydroxybicyclo[3.1.0]hexane-2,6-dicarboxylic acid]",43.3 ± 5.8 nM,28.5%,no appreciable activity,no appreciable activity,no appreciable activity,significantly decrease immobility time,no appreciable activity,no appreciable activity
"CC(=O)N[C@H]1[C@H]2[C@H](C(=O)O)[C@H]2[C@](N)(C(=O)O)[C@@H]1OCc1ccc(Cl)c(Cl)c1 [Example 4, (1S,2R,3R,4S,5R,6S)-4-(Acetylamino)-2-amino-3-[(3,4-dichlorobenzyl)oxy]bicyclo[3.1.0]hexane-2,6-dicarboxylic acid]",25.5 ± 2.8 nM,13.3%,,,,,,
